pEC50: −log10 of the molar value. A value given as a limit tells only on which side of the number the result lay.

This assay deals with T1, TGF-beta receptor type-1 [4-503,T204D] (Homo sapiens, UniProt P36897, T204D).
T1 construct: 4-503
The assay can be described thus: Enzyme Assay and Luciferase Reporter Assay. The settings on record: pH 7.5; 30 °C.
As to `c1ccc(-c2nn3c(c2-c2cc(N4CCCC4)nc4ccccc24)CCC3)nc1` [4-[2-(pyridin-2-yl)-4H,5H,6H-pyrrolo[1,2-a]pyrazol-3-yl]-2-(pyrrolidin-1-yl)quinoline], the pEC50 is less than 4.70.

In turn, `COc1cc(OC)c2nccc(-c3c(-c4cccc(C)n4)nn4c3CCC4)c2c1` [6,8-dimethoxy-4-[2-(6-methylpyridin-2-yl)-4H,5H,6H-pyrrolo[1,2-a]pyrazol-3-yl]quinoline] had a pEC50 of 5.14.

Compound `COC(=O)c1ccc2nccc(-c3c(-c4cccc(C)n4)nn4c3CCC4)c2c1` [methyl 4-[2-(6-methylpyridin-2-yl)-4H,5H,6H-pyrrolo[1,2-a]pyrazol-3-yl]quinoline-6-carboxylate] showed a pEC50 of 6.39.

The compound `CN1CCN(C(=O)COc2ccc3c(-c4c(-c5ccccn5)nn5c4CCC5)ccnc3c2)CC1` [1-(4-methylpiperazin-1-yl)-2-({4-[2-(pyridin-2-yl)-4H,5H,6H-pyrrolo[1,2-a]pyrazol-3-yl]quinolin-7-yl}oxy)ethan-1-one] had a pEC50 of 6.59.

Regarding `c1ccc(-c2nn3c(c2-c2ccnc4cc(OCC5CCCO5)ccc24)CCC3)nc1` (stereo not given) [7-(oxolan-2-ylmethoxy)-4-[2-(pyridin-2-yl)-4H,5H,6H-pyrrolo[1,2-a]pyrazol-3-yl]quinoline], the pEC50 was 7.10.

`CCSc1cc(-c2c(-c3ccccn3)nn3c2CCC3)c2ccccc2n1` [2-(ethylsulfanyl)-4-[2-(pyridin-2-yl)-4H,5H,6H-pyrrolo[1,2-a]pyrazol-3-yl]quinoline] gave a pEC50 of less than 4.70.

`O=C(O)c1ccc(Oc2ccc3c(-c4c(-c5ccccn5)nn5c4CCC5)ccnc3c2)cc1` [4-({4-[2-(pyridin-2-yl)-4H,5H,6H-pyrrolo[1,2-a]pyrazol-3-yl]quinolin-7-yl}oxy)benzoic acid] gave a pEC50 of less than 4.70.

The compound `Cc1cccc(-c2nn3c(c2-c2ccnc4ccc(C(=O)NCCN(C)C)cc24)CCC3)n1` [N-[2-(dimethylamino)ethyl]-4-[2-(6-methylpyridin-2-yl)-4H,5H,6H-pyrrolo[1,2-a]pyrazol-3-yl]quinoline-6-carboxamide] had a pEC50 of 6.33.

In turn, `CN1CCCC1CCCOc1ccc2c(-c3c(-c4ccccn4)nn4c3CCC4)ccnc2c1` (stereo not given) [7-[3-(1-methylpyrrolidin-2-yl)propoxy]-4-[2-(pyridin-2-yl)-4H,5H,6H-pyrrolo[1,2-a]pyrazol-3-yl]quinoline] gave a pEC50 of 7.77.

In the case of `Cc1cccc(-c2nn3c(c2-c2ccnc4c(F)cccc24)CCC3)n1` [8-fluoro-4-[2-(6-methylpyridin-2-yl)-4H,5H,6H-pyrrolo[1,2-a]pyrazol-3-yl]quinoline], the pEC50 is 6.02.

`Clc1cc(-c2c(-c3ccccn3)nn3c2CCC3)c2ccccc2n1` [2-chloro-4-[2-(pyridin-2-yl)-4H,5H,6H-pyrrolo[1,2-a]pyrazol-3-yl]quinoline]: the pEC50 was less than 4.70.

`CN(C)C(=O)c1ccc(Oc2ccc3c(-c4c(-c5ccccn5)nn5c4CCC5)ccnc3c2)cc1` [N,N-dimethyl-4-({4-[2-(pyridin-2-yl)-4H,5H,6H-pyrrolo[1,2-a]pyrazol-3-yl]quinolin-7-yl}oxy)benzamide]: the pEC50 was 4.82.

Consider `Oc1ccc2c(-c3c(-c4ccccn4)nn4c3CCC4)ccnc2c1` [4-[2-(pyridin-2-yl)-4H,5H,6H-pyrrolo[1,2-a]pyrazol-3-yl]quinolin-7-ol], for which the pEC50 is 6.70.

In turn, `CN1CCN(CCOc2ccc3c(-c4c(-c5ccccn5)nn5c4CCC5)ccnc3c2)CC1` [7-[2-(4-methylpiperazin-1-yl)ethoxy]-4-[2-(pyridin-2-yl)-4H,5H,6H-pyrrolo[1,2-a]pyrazol-3-yl]quinoline] had a pEC50 of 7.42.

Turning to `CN1CCN(CCCOc2ccc3c(-c4c(-c5ccccn5)nn5c4CCC5)ccnc3c2)CC1` [7-[3-(4-methylpiperazin-1-yl)propoxy]-4-[2-(pyridin-2-yl)-4H,5H,6H-pyrrolo[1,2-a]pyrazol-3-yl]quinoline], the pEC50 was 7.36.

`CCN(C)CCOc1ccc2c(-c3c(-c4ccccn4)nn4c3CCC4)ccnc2c1` [ethyl(methyl)[2-({4-[2-(pyridin-2-yl)-4H,5H,6H-pyrrolo[1,2-a]pyrazol-3-yl]quinolin-7-yl}oxy)ethyl]amine] gave a pEC50 of 7.21.

`Cc1cccc(-c2nn3c(c2-c2ccnc4ccc(Br)cc24)CCC3)n1` [6-bromo-4-[2-(6-methylpyridin-2-yl)-4H,5H,6H-pyrrolo[1,2-a]pyrazol-3-yl]quinoline] showed a negative logarithm of the EC50 (pEC50) of 7.26.

The compound `ClCCOc1ccc2c(-c3c(-c4ccccn4)nn4c3CCC4)ccnc2c1` [7-(2-chloroethoxy)-4-[2-(pyridin-2-yl)-4H,5H,6H-pyrrolo[1,2-a]pyrazol-3-yl]quinoline] showed a pEC50 of 7.18.

The compound `Cc1cccc(-c2nn3c(c2-c2ccnc4ccc(OC(F)(F)F)cc24)CCC3)n1` [4-[2-(6-methylpyridin-2-yl)-4H,5H,6H-pyrrolo[1,2-a]pyrazol-3-yl]-6-(trifluoromethoxy)quinoline] had a pEC50 of 6.70.

Regarding `CN(C)CCCCCOc1ccc2c(-c3c(-c4ccccn4)nn4c3CCC4)ccnc2c1` [dimethyl[5-({4-[2-(pyridin-2-yl)-4H,5H,6H-pyrrolo[1,2-a]pyrazol-3-yl]quinolin-7-yl}oxy)pentyl]amine], the pEC50 is 7.62.

(Values after BindingDB's records for doi:10.1021/jm701199p (Eli Lilly, 2008).)
